Source: patent US20250276999A1, “PEPTIDES FOR PROMOTING HAIR FOLLICLE NEOGENESIS, AND PREVENTION/MITIGATION OF UNTOWARD EFFECTS OF RADIATION TREATMENT” (Trustees of Tufts College, priority 2022, published 2025)
Entries after “also recorded” stand apart in the source; their conditions may differ.

Tests used:
[1] = tested on: hair follicle neogenesis; assay: Patch assay, hair follicle neogenesis in vivo; set-up: species or system nu/nu mouse; conditions: 100 μM peptide vs scrambled peptide, N=3 patches (FIG. 2)
Method: Next, we used a patch assay to test is TSN peptides can induce hair follicle neogenesis in vivo. Epidermal aggregates were resuspended in DMEM/F12 at 750,000 aggregates/750 μL (1000 aggregates/μL) and spheroids were resuspended in DMEM/F12 at 1400 spheroids/140 μL (10 spheroids/μL). 10 million dermal cells were resuspended in 400 μL DMEM/F12 (25,000 cell/μL or 1.25E6 per 50 μL). […] Using a dissecting microscope the number of hair follicles were counted for each implantation from the mucosal side of the skin (FIG. 2).
Preparation of spheroids: Dermal Papilla (DP) cells were trypsinized, neutralized and counted. […]
Preparation of epidermal Cell aggregates: From 12 neonatal foreskins, the epidermis was separated from the dermis using dispase incubation overnight. […] The final pellet was resuspended in 6 mL DMEM/F12 (for 12 skins) and the aggregates were counted using hemocytometer. […]

[2] = tested on: X-ray irradiated mice; assay: Radiation dermatitis murine model (thoracic X-ray irradiation); type: in vivo, C57BL/6 mice
Method: Sham irradiated mice without wounds were used as controls for radiation dermatitis, and treated identically as irradiated mice. Wounded mice, without radiation, were used as controls for combined injury.
Animals were irradiated in the RS2000 small animal irradiator. The RS2000 provides a cone-shaped radiation field with irradiation at 12.39-40.50 cm from the X-ray source. For dose measurements, irradiation was performed with the following settings: 160 kVp, 25 mA, 90 s irradiation time and 0.3 mm Cu beam filtration. The approximate HVL provided by the manufacturer was 0.62 mm Cu. […] A custom lead shield was placed on the floor of the irradiator, with the mouse thoracic region ˜43.75 cm from the X-ray source. Dose measurements were conducted twice to account for set-up error and reproducibility. […] The dose rate was reported for each aperture position 1-4 as an absorbed dose rate to water (ADRW, Gy/min) and the two repeated measurements were averaged.
Mice (12-14 weeks of age) were anesthetized using inhaled anesthesia (isoflurane), and the fur was clipped on the dorsal side of the thoracic region. […] Animals were then anesthetized with injected anesthesia (150 mg/kg ketamine/18 mg/kg xylazine) and placed in Lucite jigs for exposure to 16.5 Gy thoracic irradiation in the RS2000 X-ray irradiator as previously described [19].
TSN6 peptide (5 μg/day in 50 μl sterile saline) or hepatocyte growth factor (HGF; 3.3 μg/day in 50 μl sterile saline) or vehicle (sterile saline, 50 μl) were injected subcutaneously on days 2, 7 and 10 post-irradiation. Injections were made caudal, adjacent to the irradiated or irradiated/wounded area.
Animals were monitored daily for 85 days post-irradiation for both radiation dermatitis and combined injury models. Radiation dermatitis was separately scored for hair loss, erythema, scale, and ulceration. Scoring for erythema, scale and ulceration were previously described: 0=none; 1=minimal; 2=mild; 3=moderate; 4=marked [19]. Because all animals underwent fur clipping prior to irradiation and wounding, scoring for hair loss was determined as failure to regrow hair in the irradiated areas: 0=none; 1=minimal; 2=mild; 3=moderate; 4=marked. Animals were photographed for the measurement of wounds and for dermatitis scoring. […] Weight was measured as an indication of overall health.

[3] = 16.5 Gy, s.c. days 2, 7, 10 post-irradiation, TSN6 5 μg/day, HGF 3.3 μg/day, vs vehicle
[4] = skin 83 days post-irradiation, radiation alone

Question: “HSPDIQLQKGLTFEPIQIK [TSN6, 19 amino acid peptide derived from multimerin-1, Coiled coil domain]” was tested. Which “number of hair follicles (hair follicle formation)” value [1] did it give?
Answer: Its value is “two-fold increase”.

Question: What about the “combined scores of radiation skin effects” value ([2]; 16.5 Gy, TSN6 5 μg/day s.c. days 2, 7, 10 (FIG. 5E)) of the same sequence?
Answer: Its value is “marked reduction”.

Question: And the erythema score [2, 3]?
Answer: Its erythema score is “mitigated”.

Question: And the hair loss score [2, 3]?
Answer: Its hair loss score is “mitigated”.

Question: And the “radiation dermatitis (overall measures)” value [2, 3]?
Answer: The value was “mitigated; also recorded: Mitigation of radiation dermatitis”.

Question: And the scale score [2, 3]?
Answer: The scale score was “mitigated”.

Question: What about the “adipose layer in H&E histological sections” value [2, 4] of the same sequence?
Answer: The value was “preservation of the adipose layer”.

Question: What about the “epidermal thickening in H&E histological sections” value [2, 4] of the same sequence?
Answer: The value was “reduction of the epidermal thickening”.

Question: What about the “hair follicles within the irradiated area (histology)” value [2, 4] of the same sequence?
Answer: Its value is “restoration of hair follicles”.
